From patent EP4585599A1, “NITROGEN-CONTAINING FUSED RING COMPOUND, INTERMEDIATE THEREOF, PREPARATION METHOD THEREFOR AND USE THEREOF” (Hangzhou Synrx Therapeutics Biomedical Technology Co., Ltd., priority 2022, dated 2024)
Where two headings read alike, the source gives them in different places.

Legend:
[1] = target: T1, helicase domain of the Pol θ protein (Homo sapiens, UniProt O75417); experiment: Biochemical Activity Assay (ADP Glo Assay) of Pol θ inhibitor, ATPase activity
T1 construct: The helicase domain of the Pol θ protein was purified from insect protein expression system; made in house; host or cells: insect protein expression system
T1 sequence (O75417 102-554 limits assumed): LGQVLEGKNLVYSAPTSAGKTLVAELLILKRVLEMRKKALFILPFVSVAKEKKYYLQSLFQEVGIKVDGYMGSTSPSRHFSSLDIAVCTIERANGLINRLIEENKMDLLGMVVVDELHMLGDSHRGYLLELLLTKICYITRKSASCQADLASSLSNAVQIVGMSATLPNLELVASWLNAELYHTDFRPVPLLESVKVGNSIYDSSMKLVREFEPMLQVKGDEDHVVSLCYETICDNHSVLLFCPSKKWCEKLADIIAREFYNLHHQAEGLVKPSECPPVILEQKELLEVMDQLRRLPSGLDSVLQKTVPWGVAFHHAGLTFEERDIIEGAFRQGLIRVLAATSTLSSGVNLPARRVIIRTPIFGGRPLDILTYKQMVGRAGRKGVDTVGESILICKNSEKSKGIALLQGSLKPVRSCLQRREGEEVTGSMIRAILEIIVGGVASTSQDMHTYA

cells = details: Homo sapiens, DLD-1, 240 h
[2] = ADP-Glo assay, ATPase activity of Pol θ helicase domain, ssDNA substrate, read-out: Biochemical assay IC50
[3] = ADP-Glo, ssDNA substrate, 60 min at room temperature, read-out: Biochemical assay IC50
[4] = read-out: Cell viability assay IC50 (nM), CTG assay, CellTiter Glo, read on Day 10, cell line not given
[5] = read-out: Cell viability assay IC50 (nM), CTG on Day 10, cell line not given (method: DLD1 and DLD1^-/- cells)
[6] = read-out: Cell viability assay IC50 (nM)

Row | Compound | IC50 [1, 2] [nM] | IC50 [1, 3] [nM] | IC50 (cells; [4]) [nM] | IC50 (cells; [5]) [nM] | IC50 ([1]; Biochemical assay IC50 (nM)) [nM] | IC50 (cells; [6]) [nM]
1 | COc1cnc(Cl)cc1-c1cc(C)ncc1C(=O)Nc1nc2ncc(CC(C)(C)O)cc2s1 [Example 93, 2'-chloro-N-(6-(2-hydroxy-2-methylpropyl)thiazolo[4,5-b]pyridin-2-yl)-5'-methoxy-6-me thyl-[4,4'-bipyridine]-3-carboxamide] | 5.93 | < 50 | 355 | 100 to 500 |  | 
2 | COc1cnc(Cl)cc1-c1cc(C)ncc1C(=O)Nc1nc2ncc(C(C)(C)O)cc2s1 [Example 95, 2'-chloro-N-(6-(2-hydroxypropan-2-yl)thiazolo[4,5-b]pyridin-2-yl)-5'-methoxy-6-methyl-[4,4'-bipyridine]-3-carboxamide] | 8.94 | < 50 | 383 | 100 to 500 |  | 
3 | COc1cnc(Cl)cc1-c1cc(C)ncc1C(=O)Nc1nc2cnc(N3CCC(O)CC3)cc2s1 [Example 51] | 9.5 | < 50 | 85.8 | < 100 |  | 
4 | Cc1cc(-c2cc(Cl)ncc2OC(F)F)c(C(=O)Nc2nc3ccc(N4CCC(O)CC4)nc3s2)cn1 [Example 130] | 6.91 |  | 11 |  |  | 
5 | COc1cnc(Cl)cc1-c1cc(C)ncc1C(=O)Nc1nc2cnc(-c3c(C#N)cnn3C)cc2s1 [Example 169] | 8.84 |  | 89.1 |  |  | 
6 | COc1cnc(Cl)cc1-c1cc(C)ncc1C(=O)Nc1nc2ncc(N3CCC(O)C(C)(C)C3)cc2s1 (centres unmarked) [Example 118] | 4.02 |  | 23 |  |  | 
7 | COc1cnc(Cl)cc1-c1cc(C)ncc1C(=O)Nc1nc2cnc(-c3cncn3C)cc2s1 [Example 171] | 4.93 |  | 13.1 |  |  | 
8 | CCP(=O)(CC)c1ccc(-c2cc3sc(NC(=O)c4cnc(C)cc4-c4cc(Cl)ncc4OC)nc3cc2F)cc1 [Example 189] | 8.06 |  | 12.9 |  |  | 
9 | COc1cnc(Cl)cc1-c1cc(C(F)(F)F)ncc1C(=O)Nc1nc2ccc(N3CCC(O)CC3)nc2s1 [Example 122] | 145 |  | 2710 |  |  | 
10 | COc1cnc(Cl)cc1-c1cc(C)ncc1C(=O)Nc1nc2ncc(C3=CCC4(CC3)CC(O)C4)cc2s1 (centres unmarked) [Example 77] | 3.94 | < 50 | 7.36 | < 100 |  | 
11 | COc1cnc(Cl)c(F)c1-c1cc(C)ncc1C(=O)Nc1nc2ncc(N3CCOCC3)cc2s1 [Example 49] | 7.58 | < 50 | 54.1 | < 100 |  | 
12 | COc1cnc(Cl)cc1-c1cc(C)ncc1C(=O)Nc1nc2ncc(-c3ccnc(N4CCN[C@H](C)C4)c3)cc2s1 [Example 105, (R)-2'-chloro-5'-methoxy-6-methyl-N-(6-(2-(3-methylpiperazin-1-yl)pyridin-4-yl)thiazolo[4,5-b]pyridin-2-yl)-[4,4'-bipyridine]-3-carboxamide] | 6.99 | < 50 | 152 | 100 to 500 |  | 
13 | COc1cnc(Cl)cc1-c1cc(C)ncc1C(=O)Nc1nc2ncc(N3CCN(S(C)(=O)=O)CC3)cc2s1 [Example 65] | 2.72 | < 50 | 42.2 | < 100 |  | 
14 | COc1cnc(C(F)F)cc1-c1cc(C)ncc1C(=O)Nc1nc2cnc(-c3nncn3C)cc2s1 [Example 218] |  |  |  |  | 31.1 | 656
15 | CCP(=O)(CC)c1ccc(-c2cnc3nc(NC(=O)c4cnc(C)cc4-c4cc(Cl)ncc4OC)sc3c2)cc1 [Example 186] |  |  |  |  | 5.58 | 1520
16 | COc1cnc(Cl)cc1-c1cc(C)ncc1C(=O)Nc1nc2ncc(N3CCC(O)C(C)C3)cc2s1 (centres unmarked) [Example 67] | 6.18 | < 50 | 46.4 | < 100 |  | 
17 | COc1cnc(Cl)cc1-c1cc(C)ncc1C(=O)Nc1nc2ncc(N3CCC(NC(C)=O)CC3)cc2s1 [Example 57, N-(6-(4-acetaminopiperidin-1-yl)thiazolo[4,5-b]pyridin-2-yl)-2'-chloro-5'-methoxy-6-me thyl-[4,4'-bipyridine]-3-carboxamide] | 2.51 | < 50 | 126 | 100 to 500 |  | 
18 | COc1cnc(Cl)cc1-c1cc(C)ncc1C(=O)Nc1nc2ncc(-c3c(C)cnn3C)nc2s1 [Example 160] | 5.75 |  | 82.5 |  |  | 
19 | COc1cnc(Cl)cc1-c1cc(C)ncc1C(=O)Nc1nc2c(F)cc(C3=CCC(O)CC3)cc2s1 (centres unmarked) [Example 13] | 2.89 | < 50 | 5.84 | < 100 |  | 
20 | COc1cnc(Cl)cc1-c1cc(C)ncc1C(=O)Nc1nc2ncc(N3CCC(CO)CC3)cc2s1 [Example 98, 2'-chloro-N-(6-(4-(hydroxymethyl)piperidin-1-yl)thiazolo[4,5-b]pyridin-2-yl)-5'-methox y-6-methyl-[4,4'-bipyridine]-3-carboxamide] | 2.96 | < 50 | 10.6 | < 100 |  | 
21 | COc1cnc(Cl)cc1-c1cc(C)ncc1C(=O)Nc1nc2cnc(-c3[nH]ncc3C)cc2s1 [Example 161] | 3.41 |  | 121 |  |  | 
22 | COc1cnc(Cl)cc1-c1cc(C)ncc1C(=O)Nc1nc2ncc(NC3CCN(S(C)(=O)=O)CC3)cc2s1 [Example 69] | 4.28 | < 50 | 92.6 | < 100 |  | 

Row | Compound | IC50 [1, 2] [nM] | IC50 [1, 3] [nM] | IC50 (cells; [4]) [nM] | IC50 (cells; [5]) [nM] | IC50 ([1]; Biochemical assay IC50 (nM)) [nM] | IC50 (cells; [6]) [nM]
23 | COc1cnc(C(F)F)cc1-c1cc(C)ncc1C(=O)Nc1nc2cnc(N3CCOCC3=O)nc2s1 [Example 204] | 8.57 |  | 541 |  |  | 
24 | COc1cnc(Cl)cc1-c1cc(C)ncc1C(=O)Nc1nc2ncc(C3=CCC(O)CC3)cc2s1 (centres unmarked) [Example 3] | 2.51 | < 50 | 13.6 | < 100 |  | 
25 | COc1cnc(Cl)cc1-c1cc(C)ncc1C(=O)Nc1nc2nc(OC)c(-c3c(C)cnn3C)cc2s1 [Example 177, 2'-chloro-N-(6-(1,4-dimethyl-1H-parazol-5-yl)-5-methoxythiazolo[4,5-b]pyridin-2-yl)-5' -methoxy-6-methyl-[4,4'-bipyridine]-3-carboxamide] |  |  |  |  | 13.6 | 121
26 | COc1cnc(Cl)cc1-c1cc(C)ncc1C(=O)Nc1nc2ncc(CN3CCC(O)CC3)cc2s1 [Example 144] | 36.7 |  | 2220 |  |  | 
27 | COc1cnc(Cl)cc1-c1cc(C)ncc1C(=O)Nc1nc2ncc(S(C)(=O)=O)cc2s1 [Example 94, 2'-chloro-5'-methoxy-6-methyl-N-(6-(methylsulfonyl)thiazolo[4,5-b]pyridin-2-yl)-[4,4'-bipyridine]-3-carboxamide] | 6.98 | < 50 | 631 | 500 to 1000 |  | 
28 | COc1cnc(Cl)cc1-c1cc(C)ncc1C(=O)Nc1nc2ncc(-c3ccc(=O)[nH]c3)cc2s1 [Example 76] | 5.14 | < 50 |  | > 1000 |  | 
29 | COc1cnc(Cl)cc1-c1cc(C)ncc1C(=O)Nc1nc2cnc(N3CC[C@@H](O)C[C@@H]3C)nc2s1 [Example 140] | 15.8 |  | 68.1 |  |  | 
30 | COc1cnc(Cl)cc1-c1c(C(=O)Nc2nc3ccc(N4CCC(O)CC4)nc3s2)cnc(C)c1F [Example 124] | 163 |  | 584 |  |  | 
31 | COc1cccc(F)c1-c1cc(C)ncc1C(=O)Nc1nc2ccc([C@H]3CC[C@H](O)CC3)nc2s1 [Example 32] | 196 | 50 to 200 | 7080 | > 1000 |  | 
32 | COc1cnc(Cl)cc1-c1cc(C)ncc1C(=O)Nc1nc2ncc(-c3ccc(N4CCNCC4)cc3)cc2s1 [Example 81] | 2.51 | < 50 | 30.4 | < 100 |  | 
33 | COc1cnc(Cl)cc1-c1cc(C)ncc1C(=O)Nc1nc2c(C(N)=O)cc(-c3c(C)cnn3C)cc2s1 [Example 165] | 16.9 |  | 446 |  |  | 
34 | COc1cnc(Cl)cc1-c1cc(C)ncc1C(=O)Nc1nc2ncc(C3=CC(O)CC3)cc2s1 (centres unmarked) [Example 79] | 3.35 | < 50 | 92.6 | < 100 |  | 
35 | COc1cnc(Cl)cc1-c1cc(C)ncc1C(=O)Nc1nc2ncc(N3CCC(OC)CC3)cc2s1 [Example 66] | 4.98 | < 50 | 192 | 100 to 500 |  | 
36 | COc1cnc(Cl)cc1-c1cc(C)ncc1C(=O)Nc1nc2c(C#N)cc(N3CCC(O)CC3)cc2s1 [Example 120] | 5.93 |  | 14.2 |  |  | 
37 | COc1cnc(Cl)cc1-c1cc(C)ncc1C(=O)Nc1nc2ncc(N3CCCC(O)C3)cc2s1 (centres unmarked) [Example 71] | 4.46 | < 50 | 142 | 100 to 500 |  | 
38 | COc1cnc(Cl)cc1-c1cc(C)ncc1C(=O)Nc1nc2ccc(N3CCn4ccnc4C3)nc2s1 [Example 139] | 19.1 |  | 121 |  |  | 
39 | COc1cnc(Cl)cc1-c1cc(C)ncc1C(=O)Nc1nc2ncc(C3=CCC(O)CC3)nc2s1 (centres unmarked) [Example 12] | 2.41 | < 50 | 15.3 | < 100 |  | 
40 | COc1cnc(Cl)cc1-c1cc(C)ncc1C(=O)Nc1nc2c(CO)cc(-c3c(C)cnn3C)cc2s1 [Example 170] | 7.13 |  | 825 |  |  | 
41 | COc1cnc(Cl)cc1-c1cc(C)ncc1C(=O)Nc1nc2ccc([C@H]3CC[C@H](O)CC3)nc2s1 [Example 29] | 12.9 | < 50 | 131 | 100 to 500 |  | 
42 | [2H]C([2H])([2H])n1ncc(C)c1-c1cc2sc(NC(=O)c3cnc(C)cc3-c3cc(Cl)ncc3OC)nc2cn1 [Example 149] | 2.29 |  | 3.54 |  |  | 
43 | COc1cnc(Cl)cc1-c1cc(C)ncc1C(=O)Nc1nc2ncc(N3CC4(CC(O)C4)C3)nc2s1 [Example 133] | 6.92 |  | 26.1 |  |  | 
44 | COc1cnc(Cl)cc1-c1cc(C)ncc1C(=O)Nc1nc2cnc(N3CCC(NS(C)(=O)=O)CC3)cc2s1 [Example 195] |  |  |  |  | 6.18 | 34.2
